Experiments:
[1] = system: Raji, human Burkitts lymphoma cells; experiment: Cell-MTS proliferation assay, Raji; format: cell-based; conditions: Homo sapiens, Raji; Cell-MTS proliferation, 168 hr
Outline: (§1)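 Cells were seeded per 96-well at densities giving ~90% confluence by day 7 (Raji 15,000, HL-60 5,000, NCI-H460 3,000) and dosed 24 hr later with an 11-point dilution, 100 μM to 2.0 nM final. Seven-day MTS colorimetric read at OD490; IC50 from background-subtracted, DMSO-normalised values.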

[2] = system: NCI-H460, human non-small cell lung cancer cells; experiment: Cell-MTS proliferation assay, NCI-H460; format: cell-based; conditions: Homo sapiens, NCI-H460; Cell-MTS proliferation, 168 hr
Outline: as §1

[3] = system: HL-60, human proleukemia cells; experiment: Cell-MTS proliferation assay, HL-60; format: cell-based; conditions: Homo sapiens, HL-60; Cell-MTS proliferation, 168 hr
Outline: as §1

[4] = target: BRD4(BD1) (Homo sapiens (Human), UniProt O60885); experiment: In vitro enzyme inhibition assay (BRD4 AlphaScreen); format: binding; conditions: in vitro enzyme inhibition assay
Outline: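 AlphaScreen proximity readout, using streptavidin donor and Ni-chelate acceptor beads at 5 μg/mL final, monitors biotin-H4 tetraacetylated peptide interaction with purified His-tagged BRD4.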

| IC50 [1] | IC50 [2] | IC50 [3] | IC50 [4] | Compound |
| --- | --- | --- | --- | --- |
| < 500 nM | > 5000 nM | < 500 nM | < 500 nM | CCS(=O)(=O)c1cc(-c2cn(C)c(=O)c3ccccc23)c(OCC2CC2)cn1 [Example 207, 4-[5-(cyclopropylmethoxy)-2-ethylsulfonylpyridin-4-yl]-2-methylisoquinolin-1-one] |
| 500 to 5000 nM | > 5000 nM | < 500 nM | < 500 nM | COc1ccc(S(=O)(=O)CCO)cc1-c1cn(C)c(=O)c2ccc(-c3cnn(C)c3)cc12 [Example 208, 4-[5-(2-hydroxyethylsulfonyl)-2-methoxyphenyl]-2-methyl-6-(1-methylpyrazol-4-yl)isoquinolin-1-one] |
| < 500 nM | > 5000 nM | < 500 nM | < 500 nM | CCS(=O)(=O)Nc1cc(-c2cn(C)c(=O)c3ccc(-c4cnn(C)c4)cc23)c(OCC2CC2)cc1F [Example 209, N-[4-(cyclopropylmethoxy)-2-fluoro-5-[2-methyl-6-(1-methylpyrazol-4-yl)-1-oxoisoquinolin-4-yl]phenyl]ethanesulfonamide] |
| < 500 nM | > 5000 nM | < 500 nM | < 500 nM | CCS(=O)(=O)c1ccc(OC)c(-c2cn(C)c(=O)c3ccc(-c4cn[nH]c4)cc23)c1 [Example 210, 4-(5-ethylsulfonyl-2-methoxyphenyl)-2-methyl-6-(1H-pyrazol-4-yl) isoquinolin-1-one] |
| 500 to 5000 nM | > 5000 nM | 500 to 5000 nM | < 500 nM | CCS(=O)(=O)Nc1ccnc(-c2cn(C)c(=O)c3ccc(-c4cnn(C)c4)cc23)c1 [Example 213, N-[2-[2-methyl-6-(1-methylpyrazol-4-yl)-1-oxoisoquinolin-4-yl]pyridin-4-yl]ethanesulfonamide] |
| < 500 nM | > 5000 nM | < 500 nM | < 500 nM | Cn1cc(-c2cc(S(C)(=O)=O)ccc2OCC2CC2)c2c(c1=O)CCCC2 [Example 217, 4-[2-(cyclopropylmethoxy)-5-methylsulfonylphenyl]-2-methyl-5,6,7,8-tetrahydroisoquinolin-1-one] |
| 500 to 5000 nM | > 5000 nM | < 500 nM | < 500 nM | Cn1cc(-c2cc(NS(C)(=O)=O)c(F)cc2OCC2CC2)c2c(c1=O)CCCC2 [Example 218, N-[4-(cyclopropylmethoxy)-2-fluoro-5-(2-methyl-1-oxo-5,6,7,8-tetrahydroisoquinolin-4-yl)phenyl]methanesulfonamide] |
| < 500 nM | > 5000 nM | < 500 nM | < 500 nM | CCS(=O)(=O)c1ccc(OCC2CC2)c(-c2cn(C)c(=O)c3c2CCCC3)c1 [Example 219, 4-[2-(cyclopropylmethoxy)-5-ethylsulfonylphenyl]-2-methyl-5,6,7,8-tetrahydroisoquinolin-1-one] |
| > 5000 nM | > 5000 nM | > 5000 nM | 500 to 5000 nM | Cn1cc(-c2cc(S(C)(=O)=O)ccc2NC(=O)C2CC2)c2ccccc2c1=O [Example 220, N-[2-(2-methyl-1-oxoisoquinolin-4-yl)-4-methylsulfonylphenyl]cyclopropanecarboxamide] |
| > 5000 nM | > 5000 nM | > 5000 nM | > 5000 nM | CCC(=O)Nc1ccc(S(C)(=O)=O)cc1-c1cn(C)c(=O)c2ccccc12 [Example 221, N-[2-(2-methyl-1-oxoisoquinolin-4-yl)-4-methylsulfonylphenyl]propanamide] |
| > 5000 nM | > 5000 nM | > 5000 nM | > 5000 nM | CC(=O)Nc1ccc(S(C)(=O)=O)cc1-c1cn(C)c(=O)c2ccccc12 [Example 222, N-[2-(2-methyl-1-oxoisoquinolin-4-yl)-4-methylsulfonylphenyl]acetamide] |
| 500 to 5000 nM | > 5000 nM | < 500 nM | < 500 nM | Cn1cc(-c2cc(S(C)(=O)=O)ccc2NCC2CC2)c2c(c1=O)CCCC2 [Example 223, 4-[2-(cyclopropylmethylamino)-5-methylsulfonylphenyl]-2-methyl-5,6,7,8-tetrahydroisoquinolin-1-one] |

Source: patent publication US10023592B2, “Bromodomain inhibitors” (Celgene Quanticel Research, Inc., priority 2013, dated 2018)
